Measured values taken from US20220264878A1, “HERBICIDAL COMPOSITION CONTAINING R-TYPE PYRIDYLOXY CARBOXYLIC ACID DERIVATIVE AND USE THEREOF” (Qingdao Kingagroot Chemical Compound Co., Ltd., priority 2019, published 2022).

Columns and labels:
Assay type in all cases: in vivo
[1] = test system: Eleusine indica; assay: Post-emergence foliage spray, pot culture, fresh weight inhibition (Tables 1-48, 51-98, 101-148; 24 days)
Method in brief: (§1)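 Greenhouse pot plants (20–30 °C, natural light, 57–72% RH) were sprayed once on foliage at 450 kg/ha and 0.3 MPa, at the 5–6-leaf (grass) or 6–7-leaf (broadleaf) stage. Compounds were in acetone diluted with 0.1% Tween-80 water. Surviving shoots were weighed at 24 days; dead plants counted as zero.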

[2] = test system: Veronica persica^2 (collected in Zhumadian of Henan Province); assay: as above
Method in brief: as §1

[3] = test system: Sonchus arvensis; assay: as above
Method in brief: as §1

[4] = test system: Ludwigia prostrate; assay: as above
Method in brief: as §1

[5] = test system: Setaria glauca; assay: as above; settings: Table 84
Method in brief: as §1

[6] = test system: Eclipta prostrate; assay: as above; settings: fresh weight inhibition after 24 days
Method in brief: as §1

[7] = test system: Setaria viridis; assay: as above; settings: A = A2 alone, g a.i./ha: r10 60, r11 60, r12 30, r13 30
Method in brief: as §1

[8] = test system: Conyza Canadensis; assay: as above
Method in brief: as §1

[9] = test system: Veronica didyma; assay: Post-emergence foliage spray, pot culture, fresh weight inhibition (Tables 151-206; 20 days); settings: 20 days after treatment
Method in brief: (§2)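 Field-collected weeds grown in pots in a greenhouse (20-30° C., natural light, 57-72% RH), 15 per pot, 3 pots × 4 replicates. Single foliar spray at 4-5 leaves (grasses) or 5-6 leaves (broadleaf) with acetone/0.1% Tween-80 dilutions at 450 kg/ha, 0.3 MPa. Above-ground fresh weight inhibition versus solvent blank at 20 days.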

[10] = test system: Conyza Canadensis; assay: as above; settings: 20 days after treatment
Method in brief: as §2

In the case of `C[C@@H](Oc1nc(F)c(Cl)c(N)c1Cl)C(=O)O` [Compound A1], the “Control effect (%) of A applied alone in corresponding dose” value (from here on “Control effect (%) of A applied alone”) ([1]; Table 79, 75 g a.i./ha) is reported as 24.4%, the “Control effect (%) of A applied alone” value ([1]; Table 79, 150 g a.i./ha) is reported as 52.2% and the “Control effect (%) of A applied alone” value ([1]; Table 82, 75 g a.i./ha) is reported as 24.4%. For the same molecule, the “Control effect (%) of A applied alone” value ([1]; Table 82, 150 g a.i./ha) was 52.2%, the “Control effect (%) of A applied alone” value ([1]; Table 83, 75 g a.i./ha) was 24.4% and the “Control effect (%) of A applied alone” value ([1]; Table 83, 150 g a.i./ha) was 52.2%. For the same molecule, the “Control effect (%) of A applied alone” value ([2]; Table 87, 75 g a.i./ha) was 19.6%, the “Control effect (%) of A applied alone” value ([2]; Table 87, 150 g a.i./ha) was 42.4% and the “Control effect (%) of A applied alone” value ([2]; Table 88, 75 g a.i./ha) was 19.6%. For the same molecule, the “Control effect (%) of A applied alone” value ([2]; Table 88, 150 g a.i./ha) was 42.4%, the “Control effect (%) of A applied alone” value ([2]; Table 90, 75 g a.i./ha) was 19.6% and the “Control effect (%) of A applied alone” value ([2]; Table 90, 150 g a.i./ha) was 42.4%. The “Control effect (%) of A applied alone” value ([3]; A1 30 g a.i./ha) was 33.3%, the “Control effect (%) of A applied alone” value ([3]; A1 60 g a.i./ha) was 70.7% and the “Control effect (%) of A applied alone” value ([4]; A1 75 g a.i./ha) was 34.3%. The “Control effect (%) of A applied alone” value ([4]; A1 150 g a.i./ha) was 72.4%, the “Control effect (%) of A applied alone” value ([5]; 30 g a.i./ha) was 34.7% and the “Control effect (%) of A applied alone” value ([5]; 60 g a.i./ha) was 57.6%.
For `C[C@@H](Oc1nc(F)c(Cl)c(N)c1Cl)C(=O)OCC1CCCO1` (stereo partly shown) [Compound A2], the “Control effect (%) of A applied alone” value ([6]; A 75 g a.i/ha) was 32.3%, the “Control effect (%) of A applied alone” value ([6]; A 150 g a.i/ha) was 68.4% and the “Control effect (%) of A applied alone” value ([7]; A2 alone at 30 g a.i./ha) was 32.7%. The “Control effect (%) of A applied alone” value ([7]; A2 alone at 60 g a.i./ha) was 56.3%, the “Control effect (%) of A applied alone” value ([8]; A2 75 g a.i./ha) was 36.7% and the “Control effect (%) of A applied alone” value ([8]; A2 150 g a.i./ha) was 57.2%. The “Control effect (%) of A applied alone” value ([9]; A alone 75 g a.i./ha) was 19.7%, the “Control effect (%) of A applied alone” value ([9]; A alone 150 g a.i./ha) was 36.6% and the “Control effect (%) of A applied alone” value ([10]; A alone 75 g a.i./ha) was 38.1%. The “Control effect (%) of A applied alone” value ([10]; A alone 150 g a.i./ha) was 54.4%.
